One data set deals with human PWS fibroblasts. The data set is described as follows: Chromatin accessibility assay. The format is cell-based. The note with it: vs vehicle-treated controls. The protocol:
Chromatin accessibility assay was performed to investigate whether G9a inhibitors change open/close state of the imprinted cluster in the PWS-IC region according to Pai, C.C., et al. Nature communications 5, 4091 (2014) with slight modifications. Briefly, 3 days after drug treatment in human PWS fibroblasts, the cells were harvested and lysed with lysis buffer (0.5% NP-40, 15 mM Tris-HCl [pH 7.4], 0.15 mM Spermidine, 0.5 mM Spermine, 15 mM NaCl, 60 mM KCl, 1 mM DTT, 0.1 mM PMSF, 0.5M Sucrose, Protease and Phosphatase inhibitor cocktail (Roche)). The lysed cells were collected by centrifugation (3000 RPM/10 min/4° C.) and rinsed with digestive buffer (15 mM Tris-HCl [pH 7.4], 15 mM NaCl, 60 mM KCl, 4 mM MgCl2, 1 mM DTT, 0.1 mM PMSF, 0.35M Sucrose). After rinsing the cell pellets, MNase (NEB) was added to digest open status of chromatins, followed by genomic qPCR to determine changes in amount of SNRPN and other imprinted genes.

Data set [1] deals with PWS-IC. The data set is described as follows: Bisulfite genomic sequencing of PWS-IC, human PWS cells. It is filed as cell-based. The protocol:
(§1) Genomic DNA was isolated from human PWS fibroblasts or mouse tissues. DNA (1 μg) was then treated by bisulfite using the Epi-Tect bisulfite kit (Qiagen), and 125 ng input DNA was used per PCR amplification. PCR products were sub-cloned into pGEM-T easy vector (Promega) and an average of 15 clones were sequenced. DNA sequencing results were analyzed using BISMA web-based analysis platform with a setting for individual clones with <95% bisulfite conversion and <90% sequence identity to be excluded in the analysis.

In data set [2] the test system is human PWS fibroblast cells. The data set is described as follows: Cell viability (CellTox Green Cytotoxicity Assay). It is filed as cell-based. To be noted: 1-4 μM, 72 hours. The protocol: Cell viability was measured by fluorescence using CellTox™ Green Cytotoxicity Assay (Promega, cat. no. G8741) according to the manufacturer's instructions.
Data set [3] concerns PWS-IC. The data set is described as follows: Bisulfite genomic sequencing of PWS-IC, liver of PWS mice. The format is in vivo. To be noted: livers from PWS mouse models. The protocol: as §1
The subject of data set [4] is adult Snrpn-EGFP mouse model. The data set is described as follows: Long-lasting unsilencing in adult Snrpn-EGFP mice. It is filed as in vivo. To be noted: 1, 4, and 12 weeks after the last dose; brain. The protocol: For testing long lasting drug effects, the 6 week-old m^S-EGFP/p^+ mice were treated daily by i.p. injection for seven consecutive days.
For reverse-transcription PCR (RT-PCR) and quantitative real time RT-PCR (qRT-PCR), first total RNA was extracted from the fibroblasts and/or collected tissues (liver and brain) using Direct-zol RNA Miniprep kit (Zymo Research cat. no. R2070). 2 μg of total RNA was directly used for single strand cDNA synthesis with Superscript III reverse transcriptase (Invitrogen cat. no. 18080-093) according to the manufacturer's protocols. The conditions for RT-PCR were 95° C./5 min, 35-40 cycles of 95° C./30 sec, 56-60° C./60 sec, 72° C./60 sec. Quantification of target gene expression was performed in a LightCycler480 instrument (Roche) using SsoAdvanced Universal SYBR green Supermix (Biorad cat. no. 172-5271) according to the manufacturer's instructions. See Table 4 for primer sequences and conditions used for experiments for RT-PCR, qRT-PCR, bisulfite genomic sequencing, ChIP-qPCR, and chromatin accessibility assay.

The subject of a further data set is m+/pΔS-U mice. The data set is described as follows: Survival and growth in PWS mouse model. It is filed as in vivo. The note with it: between P10 and P19, treated m+/pΔS-U pups.

Experimental for m+/pΔS-U mice: The dosage and duration vary depending on the age and condition of animals.
The m/p^ΔS-U pups were treated between postnatal day 7 (P7) and P12, as most m^+/p^ΔS-U pups died before weaning. For neonatal PWS mice, a lower dose regimen of 2.5 mg/kg i.p. injections for 5 consecutive days was used. […] Pups at postnatal day 7 (P7) were treated with a daily dose of 2.5 mg/kg for 5 days.

For `COc1cc2c(NC3CCN(C(C)C)CC3)nc(C3CCCCC3)nc2cc1OCCCN1CCCC1` [UNC0638], the “chromatin accessibility across the imprinted domains incl. SNRPN and SNORD116” value in the data set on human PWS fibroblasts is “more open and accessible”. Also, in the data set on PWS-IC [1], the “DNA methylation of the PWS-IC” value is “did not significantly alter”. Further, in data set [2], the cytotoxicity result is given as “minimal cytotoxicity”.
As to `COc1cc2c(NC3CCN(C(C)C)CC3)nc(N3CCC(F)(F)CC3)nc2cc1OCCCN1CCCC1` [UNC0642], the “DNA methylation of the PWS-IC” value with PWS-IC [3] was “did not significantly alter”. Moreover, in data set [4], the “maternal expression of Snrpn-EGFP” value was “long lasting effect”. Further, the “growth (body weight)” value with m+/pΔS-U mice is “significant improvement of growth”.
